According to the kinase profiling compilation of Christmann-Franck et al. (2016):

How the values were obtained:
Assay in all cases: KINOMEscan competition binding
Settings in all cases: compound 10.0 µM
[1] = test system: ABL1 (human), P00519 [M351T]
[2] = target: ACVR2B (human) (UniProt Q13705)
[3] = target: ALK (human) (UniProt Q9UM73)
[4] = target: CAMKK2 (human) (UniProt Q96RR4)
[5] = target: CDK11B (human) (UniProt P21127)
[6] = target: CDKL2 (human) (UniProt Q92772)
[7] = target: CHEK1 (human) (UniProt O14757)
[8] = target: CaMK1 (human) (UniProt Q14012)
Chain of CaMK1 (human) (Q14012 whole entry, looked up): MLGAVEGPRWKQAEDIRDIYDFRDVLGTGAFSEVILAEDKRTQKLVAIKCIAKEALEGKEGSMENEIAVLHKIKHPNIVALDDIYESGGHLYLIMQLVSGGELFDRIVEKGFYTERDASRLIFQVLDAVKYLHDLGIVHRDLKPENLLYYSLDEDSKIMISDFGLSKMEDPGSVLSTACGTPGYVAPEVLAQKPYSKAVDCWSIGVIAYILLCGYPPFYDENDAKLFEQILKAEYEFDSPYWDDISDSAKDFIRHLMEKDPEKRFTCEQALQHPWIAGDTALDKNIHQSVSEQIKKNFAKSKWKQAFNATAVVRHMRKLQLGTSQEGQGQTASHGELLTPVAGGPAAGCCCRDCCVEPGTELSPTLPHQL

[9] = target: DAPK1 (human) (UniProt P53355)
[10] = target: DAPK3 (human) (UniProt O43293)
[11] = target: DDR2 (human) (UniProt Q16832)
[12] = target: EPHA2 (human) (UniProt P29317)
[13] = target: EPHB3 (human) (UniProt P54753)
[14] = target: FER (human) (UniProt P16591)
Chain of FER (human) (P16591 whole entry, looked up): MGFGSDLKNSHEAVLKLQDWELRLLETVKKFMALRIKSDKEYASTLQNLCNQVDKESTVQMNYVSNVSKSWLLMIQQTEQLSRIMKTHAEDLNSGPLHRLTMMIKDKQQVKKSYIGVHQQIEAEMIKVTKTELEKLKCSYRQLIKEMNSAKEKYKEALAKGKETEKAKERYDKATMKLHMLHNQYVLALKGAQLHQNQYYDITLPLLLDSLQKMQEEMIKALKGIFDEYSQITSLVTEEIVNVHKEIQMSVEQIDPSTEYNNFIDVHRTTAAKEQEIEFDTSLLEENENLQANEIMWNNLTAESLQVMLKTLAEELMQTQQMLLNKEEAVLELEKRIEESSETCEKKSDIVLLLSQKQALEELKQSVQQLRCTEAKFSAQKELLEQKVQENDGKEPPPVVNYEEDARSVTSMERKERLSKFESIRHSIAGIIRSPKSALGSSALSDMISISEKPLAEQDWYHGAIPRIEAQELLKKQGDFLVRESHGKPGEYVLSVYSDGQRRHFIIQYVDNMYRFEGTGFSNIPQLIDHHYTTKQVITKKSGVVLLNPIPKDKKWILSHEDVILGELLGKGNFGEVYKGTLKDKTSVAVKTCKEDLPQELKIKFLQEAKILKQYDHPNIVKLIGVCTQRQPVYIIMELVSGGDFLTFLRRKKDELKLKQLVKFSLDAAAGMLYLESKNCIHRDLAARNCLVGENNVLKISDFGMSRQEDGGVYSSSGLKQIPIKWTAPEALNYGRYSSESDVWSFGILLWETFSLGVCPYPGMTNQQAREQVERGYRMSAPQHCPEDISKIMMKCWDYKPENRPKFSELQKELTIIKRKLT

[15] = target: FGR (human) (UniProt P09769)
[16] = target: GAK (human) (UniProt O14976)
[17] = target: GSK3A (human) (UniProt P49840)
[18] = target: IGF1R (human) (UniProt P08069)
[19] = test system: KIT (human), P10721 [D816V]
[20] = target: LIMK2 (human) (UniProt P53671)
[21] = target: MAP2K1 (human) (UniProt Q02750)
[22] = target: MAP3K5 (human) (UniProt Q99683)
[23] = target: MAPK1 (human) (UniProt P28482)
[24] = target: MAPK4 (human) (UniProt P31152)
[25] = target: MYO3A (human) (UniProt Q8NEV4)
[26] = target: NEK5 (human) (UniProt Q6P3R8)
[27] = target: NEK6 (human) (UniProt Q9HC98)
[28] = target: NEK7 (human) (UniProt Q8TDX7)
Chain of NEK7 (human) (Q8TDX7 whole entry, looked up): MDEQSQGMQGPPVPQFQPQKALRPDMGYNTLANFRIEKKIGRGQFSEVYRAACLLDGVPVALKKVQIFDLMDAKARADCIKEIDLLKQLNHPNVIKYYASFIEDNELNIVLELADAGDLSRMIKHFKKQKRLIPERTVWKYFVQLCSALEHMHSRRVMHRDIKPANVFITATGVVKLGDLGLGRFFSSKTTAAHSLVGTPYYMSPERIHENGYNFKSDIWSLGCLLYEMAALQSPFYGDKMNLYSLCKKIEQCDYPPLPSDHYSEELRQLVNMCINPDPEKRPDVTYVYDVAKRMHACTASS

[29] = target: NUAK2 (human) (UniProt Q9H093)
[30] = target: PAK3 (human) (UniProt O75914)
[31] = target: PIK3C2B (human) (UniProt O00750)
[32] = target: PIP5K1A (human) (UniProt Q99755)
[33] = target: PRKCH (human) (UniProt P24723)
[34] = target: PRKG1 (human) (UniProt Q13976)
[35] = target: PRKX (human) (UniProt P51817)
[36] = target: ROS1 (human) (UniProt P08922)
Chain of ROS1 (human) (P08922 whole entry, looked up): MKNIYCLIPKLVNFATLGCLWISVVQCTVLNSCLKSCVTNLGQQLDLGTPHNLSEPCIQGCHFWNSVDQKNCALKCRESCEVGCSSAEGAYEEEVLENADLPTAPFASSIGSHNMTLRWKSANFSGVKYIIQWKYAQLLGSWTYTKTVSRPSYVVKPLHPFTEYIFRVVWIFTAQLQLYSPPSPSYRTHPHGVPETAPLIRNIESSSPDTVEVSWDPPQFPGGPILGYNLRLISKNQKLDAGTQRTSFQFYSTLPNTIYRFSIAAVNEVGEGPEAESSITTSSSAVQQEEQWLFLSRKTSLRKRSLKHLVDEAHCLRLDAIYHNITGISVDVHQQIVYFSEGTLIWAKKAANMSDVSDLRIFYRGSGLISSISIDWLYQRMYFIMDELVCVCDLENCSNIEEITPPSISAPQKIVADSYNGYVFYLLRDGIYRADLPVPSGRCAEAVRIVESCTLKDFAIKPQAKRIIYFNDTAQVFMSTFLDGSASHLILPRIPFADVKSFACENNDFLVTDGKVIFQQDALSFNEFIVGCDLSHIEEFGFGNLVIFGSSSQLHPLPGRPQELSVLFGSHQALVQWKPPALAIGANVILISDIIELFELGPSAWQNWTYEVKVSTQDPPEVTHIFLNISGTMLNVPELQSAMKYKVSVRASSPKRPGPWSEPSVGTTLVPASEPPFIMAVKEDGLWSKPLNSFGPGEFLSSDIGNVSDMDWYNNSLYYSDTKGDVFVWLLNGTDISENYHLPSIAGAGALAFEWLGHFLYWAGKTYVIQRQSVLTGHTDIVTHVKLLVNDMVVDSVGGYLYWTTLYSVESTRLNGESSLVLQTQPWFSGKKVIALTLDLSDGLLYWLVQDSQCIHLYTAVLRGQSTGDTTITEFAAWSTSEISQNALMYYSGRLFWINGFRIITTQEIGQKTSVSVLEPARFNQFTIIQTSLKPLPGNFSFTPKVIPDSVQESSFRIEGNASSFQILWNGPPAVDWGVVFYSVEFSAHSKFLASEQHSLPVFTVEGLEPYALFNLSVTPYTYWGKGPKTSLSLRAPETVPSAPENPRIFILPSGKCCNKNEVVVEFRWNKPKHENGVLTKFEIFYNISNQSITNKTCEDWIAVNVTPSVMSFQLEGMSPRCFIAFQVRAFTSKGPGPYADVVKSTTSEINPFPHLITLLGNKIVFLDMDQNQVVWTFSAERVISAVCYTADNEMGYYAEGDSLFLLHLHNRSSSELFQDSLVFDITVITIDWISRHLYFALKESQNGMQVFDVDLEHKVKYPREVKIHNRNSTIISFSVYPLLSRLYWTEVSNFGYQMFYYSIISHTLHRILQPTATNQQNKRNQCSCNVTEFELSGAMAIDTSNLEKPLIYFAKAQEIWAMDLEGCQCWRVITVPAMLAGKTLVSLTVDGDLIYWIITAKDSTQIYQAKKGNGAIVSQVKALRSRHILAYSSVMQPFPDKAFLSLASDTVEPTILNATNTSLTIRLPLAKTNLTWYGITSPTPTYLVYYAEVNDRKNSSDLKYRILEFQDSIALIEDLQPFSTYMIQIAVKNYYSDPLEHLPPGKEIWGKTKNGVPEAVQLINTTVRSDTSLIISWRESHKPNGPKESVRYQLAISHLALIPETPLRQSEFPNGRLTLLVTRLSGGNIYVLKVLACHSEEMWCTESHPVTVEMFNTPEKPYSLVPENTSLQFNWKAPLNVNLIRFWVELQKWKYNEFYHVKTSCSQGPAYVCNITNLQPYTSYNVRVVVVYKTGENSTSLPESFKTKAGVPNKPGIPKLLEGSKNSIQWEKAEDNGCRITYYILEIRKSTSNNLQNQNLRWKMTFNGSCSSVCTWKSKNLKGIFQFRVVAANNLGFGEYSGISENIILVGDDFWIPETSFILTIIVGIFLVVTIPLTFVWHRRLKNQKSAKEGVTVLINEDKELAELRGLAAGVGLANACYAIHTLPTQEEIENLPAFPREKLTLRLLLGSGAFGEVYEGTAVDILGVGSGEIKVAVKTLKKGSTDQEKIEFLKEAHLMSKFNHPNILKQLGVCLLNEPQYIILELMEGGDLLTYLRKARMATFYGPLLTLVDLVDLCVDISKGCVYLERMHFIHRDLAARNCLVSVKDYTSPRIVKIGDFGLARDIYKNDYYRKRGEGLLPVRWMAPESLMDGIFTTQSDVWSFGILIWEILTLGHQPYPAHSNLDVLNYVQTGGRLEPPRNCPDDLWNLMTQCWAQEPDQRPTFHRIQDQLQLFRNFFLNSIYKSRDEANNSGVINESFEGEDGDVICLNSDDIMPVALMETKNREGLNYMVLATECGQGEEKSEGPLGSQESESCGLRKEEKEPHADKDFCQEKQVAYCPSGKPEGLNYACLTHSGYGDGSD

[37] = target: RPS6KA3 KD1 (human) (UniProt P51812)
[38] = target: RPS6KA4 KD1 (human) (UniProt O75676)
[39] = target: RPS6KA5 KD1 (human) (UniProt O75582)
[40] = target: SIK2 (human) (UniProt Q9H0K1)

Chain of ACVR2B (human) (Q13705 whole entry, looked up): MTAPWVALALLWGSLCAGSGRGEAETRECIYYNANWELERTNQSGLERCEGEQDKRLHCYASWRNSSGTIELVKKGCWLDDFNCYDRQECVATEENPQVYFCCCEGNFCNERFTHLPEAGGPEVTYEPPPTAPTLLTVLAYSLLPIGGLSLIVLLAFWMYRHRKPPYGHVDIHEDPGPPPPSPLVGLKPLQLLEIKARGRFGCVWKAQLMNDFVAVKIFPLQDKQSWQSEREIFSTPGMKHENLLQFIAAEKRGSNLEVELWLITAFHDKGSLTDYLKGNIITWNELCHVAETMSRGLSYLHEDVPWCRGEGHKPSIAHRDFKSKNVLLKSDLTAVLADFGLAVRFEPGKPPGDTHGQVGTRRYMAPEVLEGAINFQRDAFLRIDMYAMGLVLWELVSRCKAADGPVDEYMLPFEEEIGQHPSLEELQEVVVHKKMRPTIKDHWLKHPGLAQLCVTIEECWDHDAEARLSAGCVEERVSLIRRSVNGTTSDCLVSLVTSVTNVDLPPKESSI
Chain of CDKL2 (human) (Q92772 whole entry, looked up): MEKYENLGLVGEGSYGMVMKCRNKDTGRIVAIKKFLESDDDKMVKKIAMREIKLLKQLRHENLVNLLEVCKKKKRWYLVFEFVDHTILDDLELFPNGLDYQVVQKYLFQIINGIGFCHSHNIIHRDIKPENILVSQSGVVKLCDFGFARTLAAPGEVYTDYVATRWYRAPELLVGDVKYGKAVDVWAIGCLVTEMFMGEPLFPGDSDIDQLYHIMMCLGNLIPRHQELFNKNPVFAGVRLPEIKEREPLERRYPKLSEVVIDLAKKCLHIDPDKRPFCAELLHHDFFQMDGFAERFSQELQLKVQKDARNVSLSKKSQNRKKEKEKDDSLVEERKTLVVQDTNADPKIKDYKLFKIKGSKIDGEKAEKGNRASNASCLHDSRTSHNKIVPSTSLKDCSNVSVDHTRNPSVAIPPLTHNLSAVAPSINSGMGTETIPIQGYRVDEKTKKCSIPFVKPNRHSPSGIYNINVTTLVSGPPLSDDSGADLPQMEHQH

| Structure (SMILES) | kinase still bound, per cent of control [1] | kinase still bound, per cent of control [2] | kinase still bound, per cent of control [3] | kinase still bound, per cent of control [4] | kinase still bound, per cent of control [5] | kinase still bound, per cent of control [6] | kinase still bound, per cent of control [7] | kinase still bound, per cent of control [8] | kinase still bound, per cent of control [9] | kinase still bound, per cent of control [10] | kinase still bound, per cent of control [11] | kinase still bound, per cent of control [12] | kinase still bound, per cent of control [13] | kinase still bound, per cent of control [14] | kinase still bound, per cent of control [15] | kinase still bound, per cent of control [16] | kinase still bound, per cent of control [17] | kinase still bound, per cent of control [18] | kinase still bound, per cent of control [19] | kinase still bound, per cent of control [20] | further results |
| --- | --- | --- | --- | --- | --- | --- | --- | --- | --- | --- | --- | --- | --- | --- | --- | --- | --- | --- | --- | --- | --- |
| Cc1ccc2nc(NCCN)c3ncc(C)n3c2c1 | 100% | 100% | 100% | 93% | 0.95% | 82% | 91% | 98% | 47% | 53% | 100% | 93% | 100% | 98% | 100% | 79% | 100% | 90% | 88% | 100% | kinase still bound, per cent of control [21]: 100%; kinase still bound, per cent of control [22]: 80%; kinase still bound, per cent of control [23]: 97%; kinase still bound, per cent of control [24]: 89%; kinase still bound, per cent of control [25]: 100%; kinase still bound, per cent of control [26]: 100%; kinase still bound, per cent of control [27]: 100%; kinase still bound, per cent of control [28]: 100%; kinase still bound, per cent of control [29]: 100%; kinase still bound, per cent of control [30]: 62%; kinase still bound, per cent of control [31]: 100%; kinase still bound, per cent of control [32]: 92%; kinase still bound, per cent of control [33]: 94%; kinase still bound, per cent of control [34]: 100%; kinase still bound, per cent of control [35]: 86%; kinase still bound, per cent of control [36]: 77%; kinase still bound, per cent of control [37]: 100%; kinase still bound, per cent of control [38]: 100%; kinase still bound, per cent of control [39]: 100%; kinase still bound, per cent of control [40]: 82% |
| O=C1Nc2ccc(I)cc2/C1=C/c1cc(Br)c(O)c(Br)c1 | 77% | 83% | 100% | 9% | 100% | 82% | 100% | 70% | 6.2% | 2.6% | 73% | 83% | 100% | 100% | 86% | 1.6% | 100% | 97% | 79% | 77% | kinase still bound, per cent of control [21]: 68%; kinase still bound, per cent of control [22]: 100%; kinase still bound, per cent of control [23]: 87%; kinase still bound, per cent of control [24]: 100%; kinase still bound, per cent of control [25]: 2.5%; kinase still bound, per cent of control [26]: 87%; kinase still bound, per cent of control [27]: 96%; kinase still bound, per cent of control [28]: 100%; kinase still bound, per cent of control [29]: 75%; kinase still bound, per cent of control [30]: 100%; kinase still bound, per cent of control [31]: 10%; kinase still bound, per cent of control [32]: 19%; kinase still bound, per cent of control [33]: 100%; kinase still bound, per cent of control [34]: 100%; kinase still bound, per cent of control [35]: 100%; kinase still bound, per cent of control [36]: 99%; kinase still bound, per cent of control [37]: 36%; kinase still bound, per cent of control [38]: 87%; kinase still bound, per cent of control [39]: 96%; kinase still bound, per cent of control [40]: 84% |
| N#Cc1c(NC(=O)c2cccc3ccccc23)sc2c1CCCC2 | 98% | 67% | 100% | 94% | 95% | 97% | 82% | 73% | 85% | 88% | 100% | 100% | 98% | 92% | 100% | 67% | 72% | 76% | 97% | 100% | kinase still bound, per cent of control [21]: 98%; kinase still bound, per cent of control [22]: 94%; kinase still bound, per cent of control [23]: 89%; kinase still bound, per cent of control [24]: 90%; kinase still bound, per cent of control [25]: 42%; kinase still bound, per cent of control [26]: 79%; kinase still bound, per cent of control [27]: 92%; kinase still bound, per cent of control [28]: 84%; kinase still bound, per cent of control [29]: 95%; kinase still bound, per cent of control [30]: 94%; kinase still bound, per cent of control [31]: 100%; kinase still bound, per cent of control [32]: 100%; kinase still bound, per cent of control [33]: 87%; kinase still bound, per cent of control [34]: 88%; kinase still bound, per cent of control [35]: 100%; kinase still bound, per cent of control [36]: 90%; kinase still bound, per cent of control [37]: 100%; kinase still bound, per cent of control [38]: 91%; kinase still bound, per cent of control [39]: 85%; kinase still bound, per cent of control [40]: 78% |
